Results as given in paper PMC3969223, “Characterization of WZ4003 and HTH-01-015 as selective inhibitors of the LKB1-tumour-suppressor-activated NUAK kinases” (Biochemical Journal, 2013).
Like-named read-outs stand apart in the source and are kept apart here.

Legend:
Type in all cases: biochemical
BRSK1 = target: T1, BRSK1 (Homo sapiens, UniProt Q8TDC3); test: Kinase profiling; conditions: for BRSK1 activity, percentage of DMSO control: 0.1 or 1 μM inhibitor, mean of triplicate
T1 sequence (Q8TDC3 1-778): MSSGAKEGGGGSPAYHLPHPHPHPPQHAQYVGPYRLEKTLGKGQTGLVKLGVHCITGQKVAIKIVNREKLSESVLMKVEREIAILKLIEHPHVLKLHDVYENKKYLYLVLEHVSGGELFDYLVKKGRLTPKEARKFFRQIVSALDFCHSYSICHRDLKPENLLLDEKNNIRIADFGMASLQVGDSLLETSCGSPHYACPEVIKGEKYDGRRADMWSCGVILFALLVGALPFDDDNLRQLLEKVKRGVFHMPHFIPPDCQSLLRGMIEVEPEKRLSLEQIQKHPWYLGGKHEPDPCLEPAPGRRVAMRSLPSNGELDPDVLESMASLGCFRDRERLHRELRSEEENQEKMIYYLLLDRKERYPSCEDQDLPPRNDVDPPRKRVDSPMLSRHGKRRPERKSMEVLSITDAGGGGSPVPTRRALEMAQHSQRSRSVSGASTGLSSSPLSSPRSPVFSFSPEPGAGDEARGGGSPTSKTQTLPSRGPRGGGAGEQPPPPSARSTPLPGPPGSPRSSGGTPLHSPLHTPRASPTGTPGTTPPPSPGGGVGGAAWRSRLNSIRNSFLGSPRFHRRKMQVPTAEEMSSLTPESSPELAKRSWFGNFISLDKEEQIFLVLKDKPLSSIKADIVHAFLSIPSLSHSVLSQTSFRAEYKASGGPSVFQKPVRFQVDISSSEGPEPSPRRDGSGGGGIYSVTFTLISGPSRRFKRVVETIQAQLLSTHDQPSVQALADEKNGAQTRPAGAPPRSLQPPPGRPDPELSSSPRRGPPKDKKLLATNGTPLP
Procedure: (§1) Kinase inhibitor specificity profiling assays were carried out at The International Centre for Protein Kinase Profiling (http://www.kinase-screen.mrc.ac.uk/) against a panel of 140 protein kinases as described previously. Results are presented as a percentage of kinase activity in DMSO control reactions. Protein kinases were assayed in vitro with 0.1 or 1 μM of the inhibitors and the results are presented as an average of triplicate reactions±S.D. or in the form of comparative histograms.

JAK2 = JAK2 (Homo sapiens, UniProt O60674); test: Kinase profiling; conditions: for JAK2 activity, percentage of DMSO control: 0.1 or 1 μM inhibitor, mean of triplicate; for Inhibition of JAK2 in profiling (in words): 1 μM
Chain of JAK2 (O60674 whole entry): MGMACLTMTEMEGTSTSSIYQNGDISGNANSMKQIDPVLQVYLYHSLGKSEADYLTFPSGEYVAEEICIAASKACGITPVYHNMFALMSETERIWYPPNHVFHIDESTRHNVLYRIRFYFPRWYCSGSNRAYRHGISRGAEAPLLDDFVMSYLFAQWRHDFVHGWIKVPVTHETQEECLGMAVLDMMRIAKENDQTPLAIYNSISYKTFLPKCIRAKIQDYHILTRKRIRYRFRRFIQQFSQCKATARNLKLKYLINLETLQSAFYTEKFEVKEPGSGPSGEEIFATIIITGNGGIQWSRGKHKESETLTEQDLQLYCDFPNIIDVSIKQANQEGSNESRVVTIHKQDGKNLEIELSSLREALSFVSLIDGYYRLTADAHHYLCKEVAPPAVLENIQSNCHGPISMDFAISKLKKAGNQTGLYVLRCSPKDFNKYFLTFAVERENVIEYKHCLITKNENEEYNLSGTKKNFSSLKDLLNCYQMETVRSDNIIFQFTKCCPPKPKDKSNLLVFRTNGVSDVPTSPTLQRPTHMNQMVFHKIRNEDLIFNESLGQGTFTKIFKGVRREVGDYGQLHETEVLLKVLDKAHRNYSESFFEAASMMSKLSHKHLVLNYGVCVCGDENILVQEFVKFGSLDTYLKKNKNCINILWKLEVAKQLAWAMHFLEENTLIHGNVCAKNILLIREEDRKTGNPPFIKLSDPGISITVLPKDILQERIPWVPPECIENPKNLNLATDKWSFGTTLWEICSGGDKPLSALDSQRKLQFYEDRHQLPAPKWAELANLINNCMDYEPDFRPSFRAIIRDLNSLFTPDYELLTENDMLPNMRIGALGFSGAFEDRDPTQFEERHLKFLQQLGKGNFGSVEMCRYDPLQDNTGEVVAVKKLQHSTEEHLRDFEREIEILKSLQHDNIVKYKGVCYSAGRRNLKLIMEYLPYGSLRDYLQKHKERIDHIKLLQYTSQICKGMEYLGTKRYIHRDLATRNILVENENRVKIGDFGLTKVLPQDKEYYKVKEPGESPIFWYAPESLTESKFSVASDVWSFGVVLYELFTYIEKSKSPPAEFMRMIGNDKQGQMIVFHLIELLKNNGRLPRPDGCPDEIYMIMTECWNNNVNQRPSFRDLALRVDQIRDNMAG
Procedure: as §1

Aurora B = Aurora B (Homo sapiens, UniProt Q96GD4); test: Kinase profiling; conditions: for Aurora B activity, percentage of DMSO control: 0.1 or 1 μM inhibitor, mean of triplicate; for Inhibition of Aurora B in profiling (in words; Aurora isoforms): 1 μM
Chain of Aurora B (Q96GD4 whole entry, canonical isoform): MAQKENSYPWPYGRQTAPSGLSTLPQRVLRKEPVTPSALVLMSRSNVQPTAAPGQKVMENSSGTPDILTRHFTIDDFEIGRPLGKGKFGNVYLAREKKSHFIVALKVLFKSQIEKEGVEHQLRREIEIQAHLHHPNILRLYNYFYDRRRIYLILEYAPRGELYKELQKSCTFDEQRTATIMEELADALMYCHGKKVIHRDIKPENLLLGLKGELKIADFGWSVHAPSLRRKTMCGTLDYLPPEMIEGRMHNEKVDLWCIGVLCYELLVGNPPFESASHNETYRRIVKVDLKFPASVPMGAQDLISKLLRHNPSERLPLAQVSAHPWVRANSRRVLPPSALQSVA
Procedure: as §1

Aurora A = target: T2, Aurora A (Homo sapiens, UniProt O14965); test: Kinase profiling; conditions: for Inhibition of Aurora A in profiling (in words; Aurora isoforms): 1 μM
T2 sequence (O14965 1-403): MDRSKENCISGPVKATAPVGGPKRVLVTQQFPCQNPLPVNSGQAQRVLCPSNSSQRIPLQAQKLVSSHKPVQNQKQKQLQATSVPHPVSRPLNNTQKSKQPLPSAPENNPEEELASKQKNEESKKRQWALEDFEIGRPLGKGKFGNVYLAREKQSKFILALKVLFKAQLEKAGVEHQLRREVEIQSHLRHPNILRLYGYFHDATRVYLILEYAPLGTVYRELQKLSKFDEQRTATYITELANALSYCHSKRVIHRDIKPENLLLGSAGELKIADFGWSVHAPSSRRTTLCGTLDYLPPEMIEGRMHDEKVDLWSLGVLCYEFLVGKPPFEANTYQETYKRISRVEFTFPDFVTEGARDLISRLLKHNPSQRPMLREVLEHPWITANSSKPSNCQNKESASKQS
Procedure: as §1

ABL = ABL (Homo sapiens, UniProt P00519); test: Kinase profiling; conditions: for ABL activity, percentage of DMSO control: 0.1 or 1 μM inhibitor, mean of triplicate; for Inhibition of ABL in profiling (in words): 1 μM
Chain of ABL (P00519 whole entry): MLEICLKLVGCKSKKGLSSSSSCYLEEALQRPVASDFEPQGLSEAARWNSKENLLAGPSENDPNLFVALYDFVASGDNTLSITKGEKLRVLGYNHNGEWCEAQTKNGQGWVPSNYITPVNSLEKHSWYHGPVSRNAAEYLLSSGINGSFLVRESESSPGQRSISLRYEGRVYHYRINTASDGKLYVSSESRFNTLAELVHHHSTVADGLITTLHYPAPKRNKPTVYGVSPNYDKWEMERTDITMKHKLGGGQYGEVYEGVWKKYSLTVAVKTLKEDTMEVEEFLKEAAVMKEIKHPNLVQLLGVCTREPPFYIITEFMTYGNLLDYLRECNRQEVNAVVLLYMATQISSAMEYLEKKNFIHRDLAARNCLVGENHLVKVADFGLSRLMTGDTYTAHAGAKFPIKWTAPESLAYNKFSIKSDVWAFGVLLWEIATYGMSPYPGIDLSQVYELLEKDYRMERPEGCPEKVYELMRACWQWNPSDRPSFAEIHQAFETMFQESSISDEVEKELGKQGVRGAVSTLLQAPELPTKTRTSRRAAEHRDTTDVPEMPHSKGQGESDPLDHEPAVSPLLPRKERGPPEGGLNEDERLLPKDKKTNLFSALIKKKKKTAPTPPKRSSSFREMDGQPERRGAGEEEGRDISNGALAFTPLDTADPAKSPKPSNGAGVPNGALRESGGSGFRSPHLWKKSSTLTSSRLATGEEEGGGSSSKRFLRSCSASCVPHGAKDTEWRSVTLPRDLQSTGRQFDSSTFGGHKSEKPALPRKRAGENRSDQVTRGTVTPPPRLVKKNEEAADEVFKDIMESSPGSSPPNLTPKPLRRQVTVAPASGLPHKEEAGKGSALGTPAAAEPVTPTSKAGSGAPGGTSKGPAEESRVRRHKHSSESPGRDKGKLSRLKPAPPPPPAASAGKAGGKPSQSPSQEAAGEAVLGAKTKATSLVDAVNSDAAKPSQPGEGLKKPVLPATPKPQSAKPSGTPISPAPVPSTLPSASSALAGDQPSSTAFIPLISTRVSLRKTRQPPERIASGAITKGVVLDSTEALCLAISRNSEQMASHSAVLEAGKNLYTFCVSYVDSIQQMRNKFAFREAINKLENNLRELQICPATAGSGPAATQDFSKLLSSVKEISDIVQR
Procedure: as §1

NUAK2 = target: T3, NUAK2 (Homo sapiens, UniProt Q9H093); test: GST–NUAK2 Sakamototide peptide kinase assay; conditions: for IC50: 200 μM Sakamototide, 100 μM [γ-32P]ATP; for Inhibition of NUAK2 (in words): results not shown
T3 construct: made in house; host or cells: HEK-293 cells, transient transfection of pEBG2T construct
T3 sequence (Q9H093 1-628): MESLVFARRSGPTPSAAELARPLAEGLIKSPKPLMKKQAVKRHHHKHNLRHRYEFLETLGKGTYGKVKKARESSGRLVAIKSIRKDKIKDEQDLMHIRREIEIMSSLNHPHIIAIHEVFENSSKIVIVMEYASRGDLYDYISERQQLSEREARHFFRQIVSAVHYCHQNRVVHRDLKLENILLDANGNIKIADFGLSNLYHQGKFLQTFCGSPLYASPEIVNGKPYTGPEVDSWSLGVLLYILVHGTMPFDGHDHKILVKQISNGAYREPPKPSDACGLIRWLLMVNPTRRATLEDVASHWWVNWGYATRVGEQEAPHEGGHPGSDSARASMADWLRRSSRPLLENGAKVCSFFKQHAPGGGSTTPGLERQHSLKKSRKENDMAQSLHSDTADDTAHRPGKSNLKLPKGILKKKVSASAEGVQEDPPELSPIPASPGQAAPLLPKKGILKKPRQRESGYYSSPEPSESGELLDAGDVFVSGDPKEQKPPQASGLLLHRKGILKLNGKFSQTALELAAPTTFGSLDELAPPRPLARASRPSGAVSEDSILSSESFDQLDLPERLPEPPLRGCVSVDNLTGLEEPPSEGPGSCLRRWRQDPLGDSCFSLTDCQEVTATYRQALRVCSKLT
Procedure: Active GST–NUAK1, GST–NUAK1[A195T] and GST–NUAK2 enzymes were purified using glutathione–Sepharose from HEK-293 cell lysates 36–48 h following the transient transfection of pEBG2T mammalian constructs expressing N-terminal GST-tagged NUAK1, NUAK1[A195T] or NUAK2. For peptide kinase assays, 96-well plates were used, and each reaction was performed in triplicate. Each reaction was set up in a total volume of 50 μl containing 100 ng of NUAK1 (wild-type or A195T mutant) or NUAK2 in 50 mM Tris/HCl (pH 7.5), 0.1 mM EGTA, 10 mM magnesium acetate, 200 μM Sakamototide, 0.1 mM [γ-^32P]ATP (450–500 c.p.m./pmol) and the indicated concentrations of inhibitors dissolved in DMSO. After incubation for 30 min at 30°C, reactions were terminated by adding 25 mM (final) EDTA to chelate the magnesium. Then, 40 μl of the reaction mix was spotted on to P81 paper and immersed in 50 mM orthophosphoric acid. Samples were washed three times in 50 mM orthophosphoric acid followed by a single acetone rinse and air drying. The incorporation of [γ-^32P]ATP into Sakamototide was quantified by Cerenkov counting. The values were expressed as a percentage of the DMSO control. IC50 curves were developed and IC50 values were calculated using GraphPad Prism software.

| Inhibition of BRSK1 in profiling (in words) (BRSK1; 1 μM) | Inhibition of JAK2 in profiling (in words) (JAK2) | Inhibition of Aurora B in profiling (in words; Aurora isoforms) (Aurora B) | Inhibition of Aurora A in profiling (in words; Aurora isoforms) (Aurora A) | Inhibition of ABL in profiling (in words) (ABL) | Inhibition of NUAK2 (in words) (NUAK2) | SMILES | BRSK1 activity, percentage of DMSO control (BRSK1) [percentage] | JAK2 activity, percentage of DMSO control (JAK2) [percentage] | Aurora B activity, percentage of DMSO control (Aurora B) [percentage] | Aurora A activity, percentage of DMSO control (Aurora A; 0.1 or 1 μM inhibitor, mean of triplicate) [percentage] | ABL activity, percentage of DMSO control (ABL) [percentage] | IC50 (NUAK2; bound given in text, read-out: IC50 for NUAK2) [µM] | Higher potency for NUAK1 than NUAK2 (NUAK2; NUAK1 versus NUAK2) [fold] | IC50 (NUAK2; read-out: IC50 for NUAK2 (wild-type GST–NUAK2)) [µM] |
| --- | --- | --- | --- | --- | --- | --- | --- | --- | --- | --- | --- | --- | --- | --- |
|  |  |  |  |  |  | Cc1nc(Nc2cnn(C3CCNCC3)c2)nc2c1N(C)C(=O)c1cc3ccccc3cc1N2C [HTH-01-015] | 130 | 101 | 97 | 117 | 110 | > 10 | > 100 |  |
|  |  |  |  |  |  | CCC(=O)Nc1cccc(Oc2nc(Nc3ccc(N4CCN(C)CC4)cc3OC)ncc2Cl)c1 [WZ4003] | 91 | 65 | 72 |  | 104 |  |  | 0.1 |
| inhibited | inhibited | inhibited | inhibited | inhibited | Neither compound significantly inhibited | CN1C(=O)c2ccccc2N(C)c2nc(Nc3cnn(C4CCNCC4)c3)ncc21 [XMD-17-51] |  |  |  |  |  |  |  |  |
|  | inhibited | inhibited | inhibited | inhibited | Neither compound significantly inhibited | CN1C(=O)c2cc3ccccc3cc2N(C)c2nc(Nc3cnn(C4CCNCC4)c3)ncc21 [XMD-18-42] |  |  |  |  |  |  |  |  |
